The test system of the assay is K562. Nature of the assay: In vitro antiproliferative activity was measured on human leukemia K562 cells. It counts as functional, cell-based.
For the molecule `CCCCCC(=O)/C=C/[C@H]1[C@H](O)CC(=O)[C@@H]1C/C=C\CCCC(=O)OC`, the IC50 – broadly, the midpoint of a concentration-inhibition curve – worked out at 28 µM.

With `CCCCCC(=O)/C=C/[C@]1(O)CC(=O)C=C1C/C=C\CCCC(=O)OC`, the IC50 turned out to be 6.6 µM.

Turning to `CCCCCC(=O)/C=C/[C@]1(O)C[C@@H](O)C=C1C/C=C\CCCC(=O)OC`, the IC50 is 20 µM.

For `CCCCC[C@H](O)/C=C/[C@@H]1[C@@H](C/C=C\CCCC(=O)O)[C@@H](O)C[C@H]1O` [DINOPROST], the 50% inhibitory concentration (IC50) was over 700 µM.

`CCCCCC(=O)/C=C/C1[C@H](O)C[C@H](O)[C@@H]1C/C=C\CCCC(=O)O` (stereo not given in full) yielded an IC50 of 362 µM.

`CCCCC[C@H](O)/C=C/C1[C@H](O)CC(=O)[C@@H]1C/C=C\CCCC(=O)OC` (stereo not given in full) gave a half-maximal inhibitory concentration (IC50) of 41 µM.

Molecule `CCCCC[C@H](O)/C=C/C1[C@H](O)C[C@H](O)[C@@H]1C/C=C\CCCC(=O)OC` (stereo not given in full) registered an IC50 of 99 µM.

The molecule `CCCCCC(=O)/C=C/C1[C@H](O)C[C@H](O)[C@@H]1C/C=C\CCCC(=O)OC` (stereo not given in full) had a half-inhibitory concentration (IC50) of 61 µM.

`CCCCC[C@H](O)/C=C/[C@]1(O)C[C@@H](O)C=C1C/C=C\CCCC(=O)OC`: half-maximal inhibition (IC50) required 201 µM.

In turn, `CCCCC[C@H](O)/C=C/[C@H]1[C@H](O)CC(=O)[C@@H]1C/C=C\CCCC(=O)O` [DINOPROSTONE] displayed a half-maximal inhibitory concentration (IC50) of 63 µM.

The values are drawn from ChEMBL document CHEMBL1127935, “Synthesis and antiproliferative activity of 15-oxoprostaglandins: Contribution of the -chain enone group to cytotoxicity” (Bioorg Med Chem Lett, 1994).
